From publication PMC3876027 (Journal of medicinal chemistry, 2013)
Entries after “also recorded” stand apart in the source; their conditions may differ. Values belong to the compound of their own block, whether it stands above or below them.

Experiments:
human M1-M4 = assay: human mAChR selectivity, functional assay at hM1-M4; format: cell-based; settings: for IC50: read-out: hM1-M4 IC50, each of M1, M2, M3, M4
human M5 = target: T1, human M5 (Homo sapiens, UniProt P08912); assay: functional calcium mobilization assay in CHO cells stably expressing human M5; format: cell-based
T1 sequence (P08912 1-532): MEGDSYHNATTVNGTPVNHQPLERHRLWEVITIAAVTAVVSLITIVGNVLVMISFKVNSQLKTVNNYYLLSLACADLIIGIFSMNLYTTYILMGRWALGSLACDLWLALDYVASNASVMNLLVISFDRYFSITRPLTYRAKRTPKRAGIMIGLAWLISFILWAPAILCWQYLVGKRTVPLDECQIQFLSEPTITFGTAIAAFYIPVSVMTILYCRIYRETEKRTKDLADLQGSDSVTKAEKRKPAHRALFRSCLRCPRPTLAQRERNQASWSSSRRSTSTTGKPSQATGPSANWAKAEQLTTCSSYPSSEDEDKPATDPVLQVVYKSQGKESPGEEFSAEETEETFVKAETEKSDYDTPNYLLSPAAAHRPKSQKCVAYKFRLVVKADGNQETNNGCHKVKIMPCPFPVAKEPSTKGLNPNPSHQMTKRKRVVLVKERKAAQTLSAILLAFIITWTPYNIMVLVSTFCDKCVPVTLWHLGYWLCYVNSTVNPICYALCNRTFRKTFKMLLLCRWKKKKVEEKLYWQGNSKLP

human M4 = target: T2, human M4 (Homo sapiens, UniProt P08173); assay: HTS counter-screen in CHO cells expressing human M4; format: cell-based; settings: confirmed HTS hit sample
T2 sequence (P08173 1-479): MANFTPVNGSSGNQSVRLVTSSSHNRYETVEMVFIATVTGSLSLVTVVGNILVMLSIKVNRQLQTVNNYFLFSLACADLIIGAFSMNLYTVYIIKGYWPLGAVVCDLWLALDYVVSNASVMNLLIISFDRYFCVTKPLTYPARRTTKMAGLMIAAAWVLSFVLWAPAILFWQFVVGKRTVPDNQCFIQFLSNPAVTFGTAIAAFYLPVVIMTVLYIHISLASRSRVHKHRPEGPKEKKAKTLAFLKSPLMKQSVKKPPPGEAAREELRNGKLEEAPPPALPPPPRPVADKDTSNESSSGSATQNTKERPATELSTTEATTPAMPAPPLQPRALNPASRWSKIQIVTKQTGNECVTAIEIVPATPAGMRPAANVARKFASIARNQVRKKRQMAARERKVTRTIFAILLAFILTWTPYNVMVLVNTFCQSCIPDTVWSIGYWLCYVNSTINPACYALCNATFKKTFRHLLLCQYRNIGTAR

human M1 = target: T3, human M1 (Homo sapiens, UniProt P11229); assay: HTS counter-screen in CHO cells expressing human M1; format: cell-based; settings: confirmed HTS hit sample
T3 sequence (P11229 1-460): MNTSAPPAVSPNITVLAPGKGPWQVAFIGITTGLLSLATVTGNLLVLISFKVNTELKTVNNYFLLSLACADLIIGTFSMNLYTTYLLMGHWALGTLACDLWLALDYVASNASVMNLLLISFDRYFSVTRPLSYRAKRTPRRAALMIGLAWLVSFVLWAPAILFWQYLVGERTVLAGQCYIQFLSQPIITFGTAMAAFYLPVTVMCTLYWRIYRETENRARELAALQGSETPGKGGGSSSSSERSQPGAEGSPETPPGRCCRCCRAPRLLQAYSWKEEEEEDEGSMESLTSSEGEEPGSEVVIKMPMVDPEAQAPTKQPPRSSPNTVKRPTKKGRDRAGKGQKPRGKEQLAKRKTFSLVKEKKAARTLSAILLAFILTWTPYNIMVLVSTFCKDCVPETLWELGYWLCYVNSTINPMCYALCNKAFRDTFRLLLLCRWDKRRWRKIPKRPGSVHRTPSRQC

CB1 = CB1 (Homo sapiens, UniProt P21554); assay: subsequent functional assay at CB1
CB1, sequence (P21554 whole entry, species assumed): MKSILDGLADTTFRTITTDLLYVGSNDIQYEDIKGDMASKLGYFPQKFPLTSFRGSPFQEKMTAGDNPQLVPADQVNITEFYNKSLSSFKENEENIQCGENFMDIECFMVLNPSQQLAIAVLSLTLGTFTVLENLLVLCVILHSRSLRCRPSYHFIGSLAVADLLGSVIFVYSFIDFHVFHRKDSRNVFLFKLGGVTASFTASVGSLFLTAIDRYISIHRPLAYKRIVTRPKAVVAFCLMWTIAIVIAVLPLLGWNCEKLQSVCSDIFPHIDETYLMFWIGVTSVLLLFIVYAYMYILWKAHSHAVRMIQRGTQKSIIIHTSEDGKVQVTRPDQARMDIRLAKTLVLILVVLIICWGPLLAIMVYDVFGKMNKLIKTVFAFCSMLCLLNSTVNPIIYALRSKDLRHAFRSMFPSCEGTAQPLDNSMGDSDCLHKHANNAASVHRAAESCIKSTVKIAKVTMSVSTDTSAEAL

hM5 [1] = target: T4, hM5 (Homo sapiens, UniProt P08912); assay: [3H]-NMS competition binding in membranes prepared from hM5 cells; settings: N=3; compared to atropine
T4 sequence (P08912 1-532): T1 sequence (P08912 1-532)

[2] = hepatic microsomal intrinsic clearance, rat; format: in vitro ADME; settings: Sprague-Dawley, liver microsomes
[3] = hepatic microsomal intrinsic clearance, cynomolgus monkey; format: in vitro ADME
[4] = hepatic microsomal intrinsic clearance, human; format: in vitro ADME; settings: liver microsomes
rat M1-M4 = assay: rat mAChR selectivity, functional assay at rM1-M4; format: cell-based
[5] = Eurofins radioligand binding panel; settings: panel of 68 targets
[6] = IV pharmacokinetics in male cynomolgus monkey; format: in vivo; settings: plasma, 1 mg/kg
hM5 [7] = target: T4, hM5; assay: [3H]-NMS dissociation kinetics with hM5 cell membranes; format: binding

IC50 (human M1-M4): > 30 µM
SMILES: O=C(c1ccc(F)c(F)c1)N1CCN2C(=O)c3ccccc3C12c1ccccc1 (centres unmarked) [4g]

IC50 (human M1-M4): > 30 µM
SMILES: O=C(c1ccc(F)c(F)c1)N1CCN2C(=O)c3ccccc3C12c1ccc(Cl)cc1 (centres unmarked) [5g]

IC50 (human M5): > 10 µM
activity on M4 (human M4): inactive
IC50 (human M1-M4): > 30 µM
activity on M1 (human M1): inactive
SMILES: O=C(c1ccc(F)cc1)N1CCN2C(=O)c3ccccc3C12c1ccccc1 (centres unmarked) [compound 1]

functional activity at CB1 (CB1): no functional activity
IC50 (human M1-M4): > 30 µM
CLint scaled at 1 µM [2]: 24 mL/min/kg
Predicted CLhep ([3]; from CLint in well-stirred model, uncorrected for fraction unbound in plasma): 14 mL/min/kg
CLint scaled ([3]; liver microsomes): 20 mL/min/kg
CLint scaled at 1 µM [4]: 2.6 mL/min/kg
IC50 (rat M1-M4; read-out: rM1-M4 IC50, each of rat M1, M2, M3, M4): > 30 µM
number of targets with significant binding (>50% inhibition @10 μM) [5]: 1
clearance [6]: 3 mL/min/kg
[3H]-NMS dissociation t1/2 (hM5 [7]; atropine (+8), N=3): 1.15 h
effect on the dissociation rate of [3H]-NMS (hM5 [7]; hM5 cell membranes): decreased the dissociation rate
SMILES: O=C(c1ccc(F)c(F)c1)N1CCN2C(=O)c3ccccc3[C@@]12c1ccc(Cl)cc1 [compound 8, (S)-9b-(4-chlorophenyl)-1-(3,4-difluorobenzoyl)-2,3-dihydro-1H-imidazo[2,1-a]isoindol-5(9bH)-one]
competition with [3H]-NMS for binding to hM5 (hM5 [1]): no competition; also recorded: does not bind at the M5 orthosteric site
activity at human M1-M4 (human M1-M4): inactive
activity at rat M1-M4 (rat M1-M4): inactive
